Measurements as given in patent publication US20070178537A1, “Assays for detection of bioactive compounds that interact with heat shock protein 90” (Sloan-Kettering Institute for Cancer Research, priority 2003, published 2007).
Values joined by “and” are separate entries in the source; they are usually repeats but may differ in a detail not shown here. Equal values may be shown once. Read-outs that look alike come from different tables or passages of the source. Values belong to the compound of their own block, whether it stands above or below them.

What was measured:
[1] = target: T1, Hsp90 alpha (Homo sapiens, UniProt P07900); assay: Fluorescence polarization competitive displacement of GM-BODIPY from Hsp90; format: binding; settings: ratio of EC50 values
T1 construct: purchased Stressgen SPP776
Text: The method comprises the steps of: • (a) combining the candidate molecule with Hsp90 in the presence of a fluorescently-labeled molecule known to bind to Hsp90; • (b) exciting the fluorescent label using polarized light to produce a fluorescent emission; • (c) observing the degree of polarization of the fluorescent emission; and • (d) comparing the degree of polarization determined in step (c) to a standard value determined for the fluorescently labeled molecule when it is bound to Hsp90. When the fluorescently-labeled molecule is bound to the Hsp90, the emission is substantially polarized. On the other hand, when the fluorescently-labeled molecule has been wholly or partially displaced by candidate molecule, the extent to which the emission is polarized decreases as a result of the rotational freedom of the unbound fluorescently labeled species.
Maximum concentration of used DMSO was 0.25% (v/v). The plate was left on a shaker at 4° C. for 5 h and the FP values in mP were recorded.
Ad-But was again used as a control.
A mixture of 30 nM Hsp90 alpha, 30 nM Hsp90 beta or 200 nM Grp94-His, respectively with 5 nM GM BODIPY was added and the plate incubated at 4EC for 7 h. Specific ligand binding was plotted against the log10 inhibitor concentration and EC50 values calculated using a non linear least square curve fitting program in Prism 4.0.

[2] = test system: Her2 in SKBr3 cells; assay: Her2-blot (whole-cell immunoassay of Her2 degradation); format: cell-based, human
Method: The human cancer cell lines SKBr3 and A431 were obtained from the American Type Culture Collection (Manassas, Va.) and maintained in 1:1 mixture of DME:F12 supplemented with 2 mM glutamine, 50 units/mL penicillin, 50 units/mL streptomycin and 5% heat inactivated fetal bovine serum (FBS) (Gemini Bioproducts) and incubated at 37° C. in 5% CO2. Stock culture was grown in T-175 flasks containing 30 mL of DME (HG, F-12, non-essential amino acids, and penicillin and streptomycin), with glutamine, and 10% FBS. Cells were dissociated with 0.05% trypsin and 0.02% EDTA in phosphate buffer saline (PBS) without calcium and magnesium. Experimental cultures of SKBr3 were plated in black, clear-bottom microtiter plates (Corning # 3603) (3,000 cells per well) in growth medium ([…]), and allowed to attach for at least 48 h at 37° C. and 5% CO2. Some wells were left without cells to serve as the blank. Growth medium (100 μL) with drug or vehicle (DMSO) was carefully added to the wells and the microtiter plates were placed at 37° C. and 5% CO2. […] Following incubation (6 h or 24 h), wells were washed twice with ice-cold tris buffer saline (TBS) containing 0.1% Tween20 (TBST) (200 μL). A house vacuum source attached to an 8-channel aspirator was used to remove the liquid from the microplates. Further, methanol (100 μL at −20° C.) was added to each well and the plate was left at 4° C. for 10 min. Methanol was removed by washing with TBST (2×200 μL). The plate was further incubated at RT for 1 h with SuperBlock® (Pierce # 37535) (200 μL) and overnight at 4° C. with the anti-Her-2 antibody (Santa Cruz Biotechnology # SC-284) ([…], 1:200 in SuperBlock®). Each well was washed with TBST (2×200 μL) and incubated at RT for 2 h with an anti-rabbit HRP-linked antibody (Sigma # A0545) (100 μL, 1:1000 in SuperBlock®). […] The plate was read 5 min later in an Analyst AD plate reader (Molecular Devices). […] Readings from wells containing only control IgG and the corresponding HRP-linked secondary antibody were set as background and deducted from all measured values. […]

[3] = test system: tumor hsp90 versus normal tissue Hsp90; assay: Fluorescence polarization assay with tumor cell and normal tissue lysates; format: binding; settings: FIG. 11 and FIG. 22C
Method: For use in the assay of the invention, cell lysates are made using the following protocol • collect cells • adherent cells: trypsinize (or scrape), harvest cells in 15 ml conical tubes and centrifuge at 1,600 RPM for 5 minutes at 2 to 8 C • (use confluent T-175 flask to obtain 0.5 ml of lysate) • floating cells: pellet cells by centrifugation 1600 rpm for 5 minutes at 2 to 8 C • wash 2× with 5 ml of PBS buffer • resuspend the pellet in 1 ml of PBS buffer and transfer cells to an eppendorf tube • centrifuge, aspirate supernatant, and freeze the pellet O/N at −70° C. • resuspend in lysis buffer B (Felts buffer) (1×10^6 cells per 100 l of buffer B) • incubate on the rotor for 2 hours at 2 to 8° C. • centrifuge the samples at 13,200 RPM for 30 min at 2 to 8° C. • transfer the supernatant to a fresh tube • quantitate protein concentration with the Pierce BCA assay • add 0.5 uL of 1M DTT/mL lysate • store samples at −70 C; before conducting an experiment thaw samples on ice and keep samples on ice throughout the course of experiment.
Cellular lysates were prepared in this manner from normal brain tissue, CML cell line K562 and breast cancer cell line SKBr3. For constructing a saturation curve, 5 nM GM BODIPY was added to the lysate, and the fluorescence polarization assay of the invention was performed. […]
The assay is stable and results in reproducible data (6-24 h readings presented). […]

[4] = target: Hsp90 beta (Homo sapiens, UniProt P08238); assay: Fluorescence polarization competitive displacement of GM-BODIPY, Hsp90 beta; format: binding; settings: 30 nM Hsp90 beta, 5 nM GM BODIPY, 7 h
Text: Specific ligand binding was plotted against the log10 inhibitor concentration and EC50 values calculated using a non linear least square curve fitting program in Prism 4.0.

[5] = Homo sapiens, SK-BR-3, Her2-blot, read-out: IC50 for Her2 degradation

Chain of Hsp90 beta (P08238 whole entry): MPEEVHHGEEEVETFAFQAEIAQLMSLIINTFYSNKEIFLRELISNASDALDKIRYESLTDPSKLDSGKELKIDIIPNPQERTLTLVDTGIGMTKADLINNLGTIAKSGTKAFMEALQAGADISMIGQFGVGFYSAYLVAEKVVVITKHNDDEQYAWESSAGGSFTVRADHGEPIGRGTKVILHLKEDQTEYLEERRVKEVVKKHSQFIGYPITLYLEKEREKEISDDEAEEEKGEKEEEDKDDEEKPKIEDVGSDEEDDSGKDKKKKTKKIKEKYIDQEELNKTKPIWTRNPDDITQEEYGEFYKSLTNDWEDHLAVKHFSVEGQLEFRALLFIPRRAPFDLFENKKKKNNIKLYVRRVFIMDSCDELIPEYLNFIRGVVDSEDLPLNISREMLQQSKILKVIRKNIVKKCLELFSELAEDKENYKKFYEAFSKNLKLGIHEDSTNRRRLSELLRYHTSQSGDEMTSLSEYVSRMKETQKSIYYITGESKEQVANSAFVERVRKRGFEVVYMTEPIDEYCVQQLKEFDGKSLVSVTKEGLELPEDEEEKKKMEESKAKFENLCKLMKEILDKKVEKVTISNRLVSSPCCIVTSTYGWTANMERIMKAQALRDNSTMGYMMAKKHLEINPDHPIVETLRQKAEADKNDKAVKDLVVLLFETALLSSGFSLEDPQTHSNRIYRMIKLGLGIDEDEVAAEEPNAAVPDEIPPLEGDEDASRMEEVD

- IC50 [2, 5]: 0.028 µM
SMILES: C[C@@H]1C[C@H]2O[C@@H]2/C=C\C=C\C(=O)Cc2c(Cl)c(O)cc(O)c2C(=O)O1 [RD, radicicol]

- IC50 ([2]; several plates at different time periods, read-out: IC50s in separate readings of the Her2-blot): 4 µM and 4.18 µM and 4.54 µM
SMILES: C#CCCCn1c(Cc2cc(OC)c(OC)c(OC)c2Cl)nc2c(N)nc(F)nc21 [PU24FCl]
- Binding affinity for tumor versus normal tissue Hsp90 [3]: difference in binding affinity

Second part, the compound before the results:

SMILES: CCCCn1c(Cc2cc(OC)c(OC)c(OC)c2)nc2c(N)ncnc21 [PU3]
- times weaker Hsp90 inhibitor than 17AAG [1]: 30

SMILES: COC1=C2C[C@@H](C)C[C@H](OC)[C@H](O)[C@@H](C)/C=C(\C)[C@H](OC(N)=O)[C@@H](OC)/C=C\C=C(/C)C(=O)NC(=CC1=O)C2=O [GM, geldanamycin]
- IC50 [2, 5]: 0.017 µM

SMILES: CCNC(=O)[C@H]1O[C@@H](n2cnc3c(N)ncnc32)[C@H](O)[C@@H]1O [NECA]
- Inhibition of cytosolic Hsp90 b (FIG. 13A) [4]: does not inhibit
